Residue numbers refer to the chain shown, from its start. Names and notes keep the numbering of the source.
Assays:
RPE cells [1] = experiment: Apoptosis by annexin V staining; format: cell-based, human; details: RPE CTRL and KDM4A overexpressing cells
RPE cells [2] = experiment: Flow cytometry cell cycle analysis; format: cell-based, human
Protocol: Asynchronously growing, or G1/S arrested cells were prepared and fixed as in (Black et al., 2010). Cells were stained with 10 μM EdU for 1 hour prior to collection. Cell cycle was analyzed by PI staining or EdU incorporation using Click-IT EdU™ Flow Cytometry Assay Kit (Life Technologies). Flow cytometry of CD4+ T cells and cell cycle distribution were analyzed using a BD FACS ARIA II™.

KDM4A = KDM4A protein levels by western blot; format: cell-based, human; details: RPE cells
Protocol: Western blot analyses were performed according to (Black et al., 2010).
Western blots were performed as in (Black et al., 2010). Briefly, adherent cells were either scraped directly into PBS, or washed with PBS, trypsinized and collected by centrifuging at 2,000 RPM for 5 minutes. For preparation of whole-cell lysates, cell pellets were washed once in ice-cold PBS and resuspended in RIPA lysis buffer [50 mM Tris pH 7.4, 150 mM NaCl, 0.25% Sodium Deoxycholate, 1% NP40, 1 mM EDTA, 10% Glycerol] supplemented with complete protease inhibitor and PhosSTOP™ phosphatase inhibitor cocktails (Roche). Cells were lysed on ice for 15 minutes and immediately frozen at −80° C. for 10 min. Lysates were subsequently sonicated at 70% amplitude for 15 minutes in a QSonica Q800R™ and cleared of cell debris by centrifuging at 12,000 RPM for 15 minutes, before being analyzed by western blotting. For HIF1α expression, adherent cells were washed twice with ice-cold PBS and scraped directly in warmed 1× Laemmli buffer. Samples were sonicated at 70% amplitude for 15 minutes and boiled immediately prior to western blotting.

[3] = system: 1q12h copy gain in RPE cells; experiment: FISH for site-specific copy gain; format: cell-based, human; details: RPE cells
Protocol: FISH was performed as described in (Manning et al., 2010). Probes for 1q12h, 1q telomere, and chromosome 2, 6, 8, and X alpha satellite were purchased from Rainbow Scientific. Probes for 1q12 (RP11-80L2), Xq13.2 (RP11-451A22), Xq13.1 (RP11-177A4) were purchased as BAC clones from Children's Hospital Oakland Research Institute (CHORI BacPac) FISH verified clone repository. Oligonucleotide probes for 1q21.2 (BCL9) and 1q23.3 were purchased from Agilent (SureFISH). BACS were prepared utilizing PureLink HiPure Plasmid Filter Maxiprep kit (Life Technologies) using the recommended modified wash buffer. Probes were nick translated (Abbot Molecular Kit) in the presence of fluorescently labeled dTTP (Enzo Life Science). Images of multiple planes of fields of nuclei were acquired on an Olympus IX81 Spinning Disk Microscope and analyzed using Slidebook 5.0 software. We used a conservative scoring metric for copy gain. Any foci that were touching were scored as a single foci to prevent increased numbers due to normally replicated foci. For RPE cells, copy gain was scored as any cell with 3 or more distinct foci. For 293T cells, copy gain was scored for any cell with 5 or more distinct foci. For RPE cells each experiment includes at least one replicate from the two different polyclonal stable cell preparations. At least 100 cells for each replicate were scored for all experiments except analysis of single cell clones.
Cells were plated onto culture dishes and allowed to adhere for 20-24 hrs in normoxia (5% CO2, 21% O2, and 74% N2). For hypoxic treatment, cells were maintained in a HERA Cell 150™ incubator (Thermo Scientific) flushed with 5% CO2, 1% O2 or 4% O2, and balanced with N2 for the duration of the experiment. Incubator calibrations were carried out by Bianchi Associates Calibrations/Verifications.
To release, cells were washed twice with culture medium pre-conditioned in normoxia or hypoxia, and supplied with fresh pre-conditioned media. For JIB-04 treatment, normoxic cells were pre-treated with 62.5 nM JIB-04 (Xcessbio) for 24 hrs, then treated again with JIB-04 and either transferred to 1% O2 or maintained in normoxia for an additional 24 hrs. Succinate was administered at a final concentration of 2 mM and cells were either maintained in normoxia for 72 hrs or maintained in normoxia for 48 hrs prior to being transferred to 1% O2 for 24 hrs.
FISH was performed as described in (Black et al., 2013; Manning et al., 2010). Probes for 1q12h, 1q telomere, chromosome 8 centromere (alpha satellite), and X centromere (alpha satellite) were purchased from Rainbow Scientific. Probes for Xq13.1 (RP11-177A4), Zebrafish BCL9 (CH73-15J19) and Zebrafish IGBP1 (CH73-223D24) were purchased as BAC clones from Children's Hospital Oakland Research Institute (CHORI BacPac) clone repository. Probes for 1q21.2 (BCL9) and 1q23.3 were purchased from Agilent (SureFISH).
FISH was performed as described in (Black et al., 2013; Manning et al., 2010). Probes for 1q12h, 1q telomere, chromosome 8 centromere (alpha satellite), and X centromere (alpha satellite) were purchased from Rainbow Scientific. Probes for Xq13.1 (RP11-177A4), Zebrafish BCL9 (CH73-15J19) and Zebrafish IGBP1 (CH73-223D24) were purchased as BAC clones from Children's Hospital Oakland Research Institute (CHORI BacPac) clone repository. Probes for 1q21.2 (BCL9) and 1q23.3 were purchased from Agilent (SureFISH). BACS were prepared utilizing PureLink HiPure™ Plasmid Filter Maxiprep kit (Life Technologies) using the recommended modified wash buffer. Probes were nick translated (Abbot Molecular Kit) in the presence of fluorescently labeled dTTP (Enzo Life Science). Images of multiple planes of fields of nuclei were acquired on an Olympus IX81 T Spinning Disk Microscope and analyzed using Slidebook™ 5.0 software. A conservative scoring metric was used for copy gain. Any foci that were touching were scored as a single copy to prevent increased numbers due to normally replicated foci.

[4] = system: cells depleted of KDM4A (shA10); experiment: Rapamycin sensitivity of KDM4A-depleted (shA10) cells transfected with wild-type or mutant KDM4A; format: cell-based; details: shA10 depletion background
Protocol: Cells were depleted of KDM4A (shA10) and transfected with wild-type (WT) or mutant KDM4A. […] This differed from WT expression in the depletion background, which was less sensitive. […]
The effect of KMD4A mutations on drug sensitivity was examined by depleting cells of KDM4A (shA10) and then transfecting with wild-type or mutant KDM4A. The sensitivity of the cells to rapamycin was then determined. […] This differed from WT expression in the depletion background, which was less sensitive.

HEK 293T cells = experiment: Monitored cell proliferation assay (xCELLigence growth curves, doubling time); format: cell-based, human
Protocol: Seventy two hours post transfection 1×10^4 HEK 293T cells were seeded per well of a 96 well plate, and then treated after 24h. Cell proliferation was monitored with an xCELLigence system (Roche) (Vistejnova et al., 2009).

H3K36me3 = experiment: H3K36 demethylase activity of KDM4A variants in transfected cells (immunofluorescence); format: cell-based; set-up: key: + indicates active; − indicates inactive; +/− indicates partial acitivty; details: KDM4A mutations
H3K9me3 = experiment: H3K9 demethylase activity of KDM4 variants in transfected cells; format: cell-based; set-up: key: + indicates active; − indicates inactive; +/− indicates partial acitivty; details: KDM4A mutations

NC(=O)NO [HU, hydroxyurea]
apoptosis (percent Annexin V positive cells) (RPE cells [1]): no observed increased apoptosis

O=C(O)CCC(=O)O [succinate, reference compound]
cell cycle profile (RPE cells [2]; normoxia and hypoxia): did not alter KDM4A stabilization or cell cycle progression
KDM4A protein levels in hypoxia (KDM4A; 1% O2): did not alter KDM4A stabilization
hypoxia-dependent copy gain of 1q12h ([3]; 1% O2 24 hours, JIB-04 62.5 nM or 2 mM succinate pre-treatment, or overexpression): sufficient to abrogate hypoxia-dependent copy gain of 1q12h
hypoxia-induced 1q12h copy number gains ([3]; 4% oxygen, transfection or 2 mM succinate for 24 hours): antagonized

Tunicamycin
cell cycle profile under stress (RPE cells [2]; 24 hours): resulted in altered cell cycle profiles
KDM4A protein levels under stress (KDM4A; 24 hours): significantly increased KDM4A levels
site-specific copy gain (1q12h and 1q21.2) under stress ([3]; 24 hours, 2 μg/ml Tunicamycin): did not promote site-specific copy gain

B1: KDM4A WT: wild type KDM4A (major allele E482) (protein)
chain: MASESETLNPSARIMTFYPTMEEFRNFSRYIAYIESQGAHRAGLAKVVPPKEWKPRASYDDIDDLVIPAPIQQLVTGQSGLFTQYNIQKKAMTVREFRKIANSDKYCTPRYSEFEELERKYWKNLTFNPPIYGADVNGTLYEKHVDEWNIGRLRTILDLVEKESGITIEGVNTPYLYFGMWKTSFAWHTEDMDLYSINYLHFGEPKSWYSVPPEHGKRLERLAKGFFPGSAQSCEAFLRHKMTLISPLMLKKYGIPFDKVTQEAGEFMITFPYGYHAGFNHGFNCAESTNFATRRWIEYGKQAVLCSCRKDMVKISMDVFVRKFQPERYKLWKAGKDNTVIDHTLPTPEAAEFLKESELPPRAGNEEECPEEDMEGVEDGEEGDLKTSLAKHRIGTKRHRVCLEIPQEVSQSELFPKEDLSSEQYEMTECPAALAPVRPTHSSVRQVEDGLTFPDYSDSTEVKFEELKNVKLEEEDEEEEQEAAALDLSVNPASVGGRLVFSGSKKKSSSSLGSGSSRDSISSDSETSEPLSCRAQGQTGVLTVHSYAKGDGRVTVGEPCTRKKGSAARSFSERELAEVADEYMFSLEENKKSKGRRQPLSKLPRHHPLVLQECVSDDETSEQLTPEEEAEETEAWAKPLSQLWQNRPPNFEAEKEFNETMAQQAPHCAVCMIFQTYHQVEFGGFNQNCGNASDLAPQKQRTKPLIPEMCFTSTGCSTDINLSTPYLEEDGTSILVSCKKCSVRVHASCYGVPPAKASEDWMCSRCSANALEEDCCLCSLRGGALQRANDDRWVHVSCAVAILEARFVNIAERSPVDVSKIPLPRFKLKCIFCKKRRKRTAGCCVQCSHGRCPTAFHVSCAQAAGVMMQPDDWPFVVFITCFRHKIPNLERAKGALQSITAGQKVISKHKNGRFYQCEVVRLTTETFYEVNFDDGSFSDNLYPEDIVSQDCLQFGPPAEGEVVQVRWTDGQVYGAKFVASHPIQMYQVEFEDGSQLVVKRDDVYTLDEELPKRVKSRLSVASDMRFNEIFTEKEVKQEKKRQRVINSRYREDYIEPALYRAIME
modifications: left off: large carriers
sensitivity of cells to rapamycin [4]: reduced the sensitivity of the cells
rescue of increased sensitivity to AZD8055 due to KDM4A depletion (doubling time 5h-35h) (HEK 293T cells; shRNA KDM4A plus non targetable GFP-KDM4A constructs): rescues
rescue of increased sensitivity to Rapamycin of KDM4A depleted cells (doubling time 5h-35h) (HEK 293T cells; shRNA KDM4A plus shRNA-resistant GFP-KDM4A constructs): rescues

B2: H188A: catalytic mutant of KDM4A (protein, UniProt O75164 2-1064, looked up, variant H188A)
Lysine-specific demethylase 4A: ASESETLNPSARIMTFYPTMEEFRNFSRYIAYIESQGAHRAGLAKVVPPKEWKPRASYDDIDDLVIPAPIQQLVTGQSGLFTQYNIQKKAMTVREFRKIANSDKYCTPRYSEFEELERKYWKNLTFNPPIYGADVNGTLYEKHVDEWNIGRLRTILDLVEKESGITIEGVNTPYLYFGMWKTSFAWATEDMDLYSINYLHFGEPKSWYSVPPEHGKRLERLAKGFFPGSAQSCEAFLRHKMTLISPLMLKKYGIPFDKVTQEAGEFMITFPYGYHAGFNHGFNCAESTNFATRRWIEYGKQAVLCSCRKDMVKISMDVFVRKFQPERYKLWKAGKDNTVIDHTLPTPEAAEFLKESELPPRAGNEEECPEEDMEGVEDGEEGDLKTSLAKHRIGTKRHRVCLEIPQEVSQSELFPKEDLSSEQYEMTECPAALAPVRPTHSSVRQVEDGLTFPDYSDSTEVKFEELKNVKLEEEDEEEEQAAAALDLSVNPASVGGRLVFSGSKKKSSSSLGSGSSRDSISSDSETSEPLSCRAQGQTGVLTVHSYAKGDGRVTVGEPCTRKKGSAARSFSERELAEVADEYMFSLEENKKSKGRRQPLSKLPRHHPLVLQECVSDDETSEQLTPEEEAEETEAWAKPLSQLWQNRPPNFEAEKEFNETMAQQAPHCAVCMIFQTYHQVEFGGFNQNCGNASDLAPQKQRTKPLIPEMCFTSTGCSTDINLSTPYLEEDGTSILVSCKKCSVRVHASCYGVPPAKASEDWMCSRCSANALEEDCCLCSLRGGALQRANDDRWVHVSCAVAILEARFVNIAERSPVDVSKIPLPRFKLKCIFCKKRRKRTAGCCVQCSHGRCPTAFHVSCAQAAGVMMQPDDWPFVVFITCFRHKIPNLERAKGALQSITAGQKVISKHKNGRFYQCEVVRLTTETFYEVNFDDGSFSDNLYPEDIVSQDCLQFGPPAEGEVVQVRWTDGQVYGAKFVASHPIQMYQVEFEDGSQLVVKRDDVYTLDEELPKRVKSRLSVASDMRFNEIFTEKEVKQEKKRQRVINSRYREDYIEPALYRAIME
sensitivity of cells to rapamycin [4]: did not reduce drug sensitivity

B3: 2A-R1025C*: KDM4A mutation (protein, UniProt O75164 2-1064, looked up, variant R1025C)
Lysine-specific demethylase 4A: B2 Lysine-specific demethylase 4A with A187H, R1024C
sensitivity of cells to rapamycin [4]: equally as sensitive as KDM4A/JMJD2A depletion
H3k36 Demethylase Activity (H3K36me3): +
H3k9 Demethylase Activity (H3K9me3): +
